Source: ChEMBL document CHEMBL1201862, “PubChem BioAssay data set” (2004)
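Following 48 hours of exposure in 96-well plates, responses at five concentrations were used to interpolate endpoints linearly. At the GI50, growth is halved.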 Calls of active or inactive are those of the source. No stated cut-off is given here; in the data, active = GI50 up to about 1.1 µM and inactive = higher.

Columns and labels:
Experiment in all cases: NCI-60 cell line screen, 48 h
BT-549 = test system: BT-549
DU-145 = test system: DU-145
HCT-116 = test system: HCT-116
HOP-62 = test system: HOP-62
KM12 = test system: KM12
MOLT-4 = test system: MOLT-4
NCI-H23 = test system: NCI-H23
NCI-H460 = test system: NCI-H460
NCI-H522 = test system: NCI-H522
NCI/ADR-RES = test system: NCI/ADR-RES
RPMI-8226 = test system: RPMI-8226
SF-268 = test system: SF-268
SF-539 = test system: SF-539
SK-OV-3 = test system: SK-OV-3
SN12C = test system: SN12C
SNB-75 = test system: SNB-75
UACC-257 = test system: UACC-257
K562 = test system: K562
OVCAR-5 = test system: OVCAR-5
U-251 = test system: U-251

| Structure (SMILES) | GI50 (BT-549) | GI50 (DU-145) | GI50 (HCT-116) | GI50 (HOP-62) | GI50 (KM12) | GI50 (MOLT-4) | GI50 (NCI-H23) | GI50 (NCI-H460) | GI50 (NCI-H522) | GI50 (NCI/ADR-RES) | GI50 (RPMI-8226) | GI50 (SF-268) | GI50 (SF-539) | GI50 (SK-OV-3) | GI50 (SN12C) | GI50 (SNB-75) | GI50 (UACC-257) | GI50 (K562) | GI50 (OVCAR-5) | GI50 (U-251) |
| --- | --- | --- | --- | --- | --- | --- | --- | --- | --- | --- | --- | --- | --- | --- | --- | --- | --- | --- | --- | --- |
| Cc1cccc(Nc2nc(NNC(=O)Cc3ccccc3)nc(NNC(=O)c3ccncc3)n2)c1 | > 10 µM (inactive) | > 10 µM (inactive) | > 10 µM (inactive) | > 10 µM (inactive) | > 10 µM (inactive) | > 10 µM (inactive) | > 10 µM (inactive) | > 10 µM (inactive) | > 10 µM (inactive) | > 10 µM (inactive) | > 10 µM (inactive) | > 10 µM (inactive) | > 10 µM (inactive) | > 10 µM (inactive) | > 10 µM (inactive) | > 10 µM (inactive) | > 10 µM (inactive) | – | – | – |
| COc1cccc2c1C(=O)c1c(O)c3c(c(O)c1C2=O)C[C@@](O)(/C(C)=N/NC(=O)c1ccc(Cl)c(Cl)c1)C[C@@H]3OC1CC(N)C(O)C(C)O1 (stereo partly specified) | 0.505 µM (active) | 0.251 µM (active) | 0.0391 µM (active) | 0.147 µM (active) | 0.205 µM (active) | < 0.01 µM (active) | 0.0592 µM (active) | 0.067 µM (active) | 0.223 µM (active) | 0.532 µM (active) | 0.0269 µM (active) | 0.296 µM (active) | 0.183 µM (active) | 0.44 µM (active) | 0.101 µM (active) | 0.0448 µM (active) | 0.188 µM (active) | 0.197 µM (active) | 0.374 µM (active) | 0.0589 µM (active) |
| CC12OOC(c3ccccc31)c1c2ccc2ccccc12 (stereo unspecified) | 10.4 µM (inactive) | 18.5 µM (inactive) | 1.73 µM (inactive) | 16.2 µM (inactive) | 2.62 µM (inactive) | 1.6 µM (inactive) | 11.4 µM (inactive) | 2.26 µM (inactive) | 0.843 µM (active) | 10 µM (inactive) | 2.45 µM (inactive) | 11.2 µM (inactive) | 8.15 µM (inactive) | 20 µM (inactive) | 15.8 µM (inactive) | 8.47 µM (inactive) | 13.4 µM (inactive) | 1.65 µM (inactive) | 19.5 µM (inactive) | 14.7 µM (inactive) |
| COC(=O)[C@@H]1[C@H]2CC[C@]3(C)[C@@H](OC(C)=O)CC[C@H]3[C@@H]2CC[C@H]1C1(C)SCCS1 | 18.4 µM (inactive) | 35.9 µM (inactive) | 19.6 µM (inactive) | 23.1 µM (inactive) | 28.6 µM (inactive) | 24.8 µM (inactive) | 37.2 µM (inactive) | 29.3 µM (inactive) | 30.5 µM (inactive) | 20.4 µM (inactive) | 19.3 µM (inactive) | 44.4 µM (inactive) | 37 µM (inactive) | 53.6 µM (inactive) | 18.5 µM (inactive) | 37.2 µM (inactive) | 25.2 µM (inactive) | 36.1 µM (inactive) | 22.8 µM (inactive) | 23.6 µM (inactive) |
| Cc1cccc(/C=N/NC(=S)Nc2ccc(Cl)cc2)n1 | 7.14 µM (inactive) | 3.31 µM (inactive) | 1.47 µM (inactive) | 1.08 µM (active) | 0.977 µM (active) | 1.17 µM (inactive) | 4.38 µM (inactive) | 0.635 µM (active) | 0.177 µM (active) | 0.527 µM (active) | 1.14 µM (inactive) | 2.61 µM (inactive) | 2.52 µM (inactive) | 1.8 µM (inactive) | 3.4 µM (inactive) | 0.741 µM (active) | 3.13 µM (inactive) | 0.329 µM (active) | 15.7 µM (inactive) | 2.19 µM (inactive) |
| CN(C)N1C(=O)c2ccccc2NC1c1ccccc1 (stereo unspecified) | > 100 µM (inactive) | > 100 µM (inactive) | > 100 µM (inactive) | > 100 µM (inactive) | > 100 µM (inactive) | > 100 µM (inactive) | > 100 µM (inactive) | > 100 µM (inactive) | > 100 µM (inactive) | > 100 µM (inactive) | > 100 µM (inactive) | > 100 µM (inactive) | > 100 µM (inactive) | > 100 µM (inactive) | > 100 µM (inactive) | > 100 µM (inactive) | > 100 µM (inactive) | – | > 100 µM (inactive) | > 100 µM (inactive) |
| C/C(=C/c1ccccc1)CN(C(=O)/C=C\Sc1ccccc1)C(C)(C)C | > 43.7 µM (inactive) | > 100 µM (inactive) | 24.8 µM (inactive) | > 100 µM (inactive) | > 100 µM (inactive) | 3.87 µM (inactive) | > 48 µM (inactive) | > 100 µM (inactive) | 10.1 µM (inactive) | > 34.6 µM (inactive) | 21.2 µM (inactive) | – | > 91.2 µM (inactive) | > 100 µM (inactive) | > 100 µM (inactive) | > 100 µM (inactive) | 48.3 µM (inactive) | 27.2 µM (inactive) | > 100 µM (inactive) | > 84.9 µM (inactive) |
| CC(=O)N(C(C)=O)n1c(-c2ccccc2)n[nH]c1=O | > 100 µM (inactive) | > 100 µM (inactive) | > 100 µM (inactive) | > 100 µM (inactive) | > 100 µM (inactive) | > 100 µM (inactive) | > 100 µM (inactive) | – | > 100 µM (inactive) | > 100 µM (inactive) | > 100 µM (inactive) | > 100 µM (inactive) | > 100 µM (inactive) | > 100 µM (inactive) | > 100 µM (inactive) | > 100 µM (inactive) | > 100 µM (inactive) | > 100 µM (inactive) | > 100 µM (inactive) | > 100 µM (inactive) |
| Nc1nc(N)c2ncn(-c3ccc(Cl)c(Cl)c3)c2n1 | 21.9 µM (inactive) | 18.5 µM (inactive) | 16.1 µM (inactive) | 29.6 µM (inactive) | 25.4 µM (inactive) | 12.2 µM (inactive) | 15.9 µM (inactive) | – | 28.4 µM (inactive) | 37.7 µM (inactive) | 22.4 µM (inactive) | 31.7 µM (inactive) | 21 µM (inactive) | 24.9 µM (inactive) | 15.8 µM (inactive) | < 0.01 µM (active) | 27.4 µM (inactive) | – | 42.7 µM (inactive) | 25.9 µM (inactive) |
| CNC(=O)N(CCC#N)CCN(CCN(C(=O)NC)c1ccccc1)C(=O)NC | > 100 µM (inactive) | > 100 µM (inactive) | > 100 µM (inactive) | > 100 µM (inactive) | > 100 µM (inactive) | > 100 µM (inactive) | > 100 µM (inactive) | > 100 µM (inactive) | > 100 µM (inactive) | > 100 µM (inactive) | > 100 µM (inactive) | – | > 100 µM (inactive) | > 100 µM (inactive) | > 100 µM (inactive) | > 100 µM (inactive) | > 100 µM (inactive) | > 100 µM (inactive) | > 100 µM (inactive) | > 100 µM (inactive) |
